pIC50: −log10 of the molar value.

The IC50 is the concentration that inhibits the measured activity by half. What is called pIC50 is the negative decadic logarithm of the IC50, by convention in mol/L. One may read the AUC(0-t) as the area under the concentration-time curve up to a stated or last time point. One may read the Cmax as the highest concentration seen after dosing. One may read the Tmax as the time from dosing to the highest level. Broadly, the half-life is the time needed for the level to fall by half in the phase considered. Read a high half-life as slow loss. Usually bioavailability stands for the share of a dose that reaches the circulation, judged against a reference dose that is usually intravenous.

Data set [1] has as its target T1, PDK1 (Homo sapiens (Human), UniProt O15530). The data set is described as follows: Time resolved-FRET LanthaScreen Kinase Binding Assay. The note with it: for IC50: TR-FRET Lanthascreen Kinase Binding Assay, read-out: PDK1 Kinase assays (IC50, μM) Binding Assay; for pIC50: tested in triplicate, FIG. 5, read-out: IC50 in PDK1 time resolved-FRET LanthaScreen Kinase Binding Assay. The text has this: Binding of the tracer to the kinase is detected using a europium-labeled anti-tag antibody, which binds to the kinase of interest. […] Binding of an inhibitor to the kinase competes for binding with the tracer, resulting in a loss of FRET.
Activity of compounds was routinely assessed using a secondary assay as described herein. The secondary assay was a time resolved-FRET LanthaScreen Kinase Binding Assay (Invitrogen Corporation, Carlsbad, Calif.). This assay evaluates the ability of the test compound to compete with a fluorescently-labeled tracer molecule to bind in the ATP pocket of a kinase. The assay signal is generated when a Europium-conjugated anti-His tag antibody (Invitrogen) bound to the His-tagged kinase produces a TR-FRET signal with the tracer molecule bound in the ATP pocket of the kinase. […] After 60 minutes of incubation at room temperature, the TR-FRET signal was measured on an EnVision microplate reader.
(§1) IC50 values are determined using GraphPad Prism 5 software. The data were entered as an X-Y plot into the software as percent inhibition for each concentration of the drug. The concentration values of the drug were log transformed and the nonlinear regression was carried out using the “sigmoidal dose-response (variable slope)” option within the GraphPad software to model the data and calculate IC50 values.
Background: In TR-FRET formats the signal depends on donor and acceptor labels being close together.

The nature of data set [2]: Pharmacokinetics in mice (iv and po). The note with it: for Vd: read-out: Vss. It counts as in vivo. The procedure: Pharmacokinetic parameters were determined by dosing mice by oral (“po”) and intravenous (“iv”) administration of two representative disclosed compounds.
The vehicle was 1% DMSO, 10% ethanol, 35% PEG 400, and the balance H2O. Blood was collected (about 50 μl per individual animal) into heparin-containing collection tubes, and cells were removed by centrifugation. The concentration of compound was determined at the indicated time points for each sample using mass spectrometry. […] PK parameters were calculated using WinNonLin (Pharsight Products, Saint Louis, Mo.). […] The level detected at 0.08 hr was 9 ng/ml±5.0 ng/ml.
Vehicle, sample collection and analysis is as described above.

Data set [3] can be described thus: Mouse xenograft study, body weight. Type of data set: in vivo, athymic nude mice. Conditions: 50 mg/kg IP, daily Monday through Friday for two weeks. The procedure:
(§2) The in vivo effects of compounds were determined in a mouse subcutaneous xenograft tumor model wherein AN3-CA cells were implanted subcutaneously into the hind flank of athymic nude mice. Briefly, seven-week-old mice were injected with 2×10^6 AN3-CA cells on the right hind flank. […] The vehicle for these studies was 20% DMSO, 20% cremophor, and 60% water. The test compound was administered on daily schedule (Monday through Friday) for two weeks at a concentration of 50 mg/kg by intraperitoneal (“IP”) injection. The mice were sacrificed and the tumors were excised for western blot analysis. Tumor volume was determined using the formula L×W2×0.5, where L is the longest length, and W is the shortest length. Tumor volume and body weight was measured twice a week.
(§3) The study was carried out as described above for 2,2-difluoro-N-(3-(5-morpholino-1H-benzo[d]imidazol-2-yl)-1H-indazol-5-yl)cyclopropanecarboxamide, except that the test compound used was 2,2-difluoro-N-(3-(5-(2-methylmorpholino)-1H-benzo[d]imidazol-2-yl)-1H-indazol-5-yl)cyclopropanecarboxamide. Data are shown in FIGS. 10A and 10B for the effect of the compound on tumor volume and body weight, respectively.

The test system of data set [4] is AN3-CA cells. The data set is described as follows: Mouse subcutaneous xenograft tumor model, tumor volume. It counts as in vivo, athymic nude mice. The note with it: 50 mg/kg IP, daily Monday through Friday for two weeks. The procedure: as §2, §3
Data set [5] has as its system phosphorylation of the ribosomal protein s6 in AN3-CA cells. The data set is described as follows: In-cell western, phosphorylation of ribosomal protein s6. It counts as cell-based. The note with it: Homo sapiens, 2 hours. The procedure:
Cells were washed with PBS and whole cell lysates were prepared by incubating cells in […] (Invitrogen Corporation, Carlsbad, Calif.) supplemented with Protease Inhibitor Cocktail (Roche Applied Science, a division of Roche Diagnostics Corporation, Indianapolis, Ind.) and Phosphatase Inhibitor Cocktail (Roche) on ice for 30 minutes. After centrifuging the lysates at 12,000 rpm for 10 minutes at 4° C., the supernatant was collected. Protein concentration was determined using BCA Assay. The same amounts of protein were run on NuPAGE 4-12% Bis-Tris Gel, and then transferred onto a PVDF membrane. After blocking with Odyssey Blocking Buffer for 1 hour at room temperature, the membrane was incubated with primary antibodies (Cell Signaling Technology, Inc., Danvers, Massachussetts) overnight at 4° C. followed by 40 minute incubation with IRDye secondary antibody. The membrane was scanned using Odyssey Infrared Imaging System. […]
Briefly, ribosomal protein S6 was detected using differentially labeled antibodies specific for either total S6 protein or the phosphorylated form of the protein. In-cell detection with visual overlay of the signals for each antibody, e.g. total ribosomal protein s6 (red) and phospho-ribosomal protein s6 (green), allowed simultaneous detection and quantitation. Quantitation of signal intensity allowed determination of IC50 values for the test compounds.

Data set [6] addresses T1, PDK1. The data set is described as follows: PDK1 ATP Depletion Kinase Assay (Kinase-Glo luminescence). Type of data set: biochemical. Conditions: PDKtide substrate, read-out: PDK1 Kinase assays (IC50, μM) Activity Assay. The procedure:
Test compounds were diluted to desired concentrations in kinase reaction buffer and briefly incubated with human recombinant PDK1 kinase which is histidine-tagged (Invitrogen Corporation, Carlsbad, Calif.). The reaction was subsequently initiated by the addition of ATP and PDKtide substrate (Millipore Corporation, Billerica, Massachussetts). […] After an incubation of 60 minutes at room temperature, 10 μl of the Kinase-Glo reagent (Promega Corporation, Madison, Wis.) was added to each well and incubated for an additional 10 minutes. Luminescence was measured on an EnVision microplate reader (PerkinElmer). The amount of luminescence from each reaction is inversely correlated with PDK1 kinase activity. Percent inhibition and IC50 values can be calculated by comparing enzyme activity in drug-treated wells to the appropriate controls, e.g. vehicle control.
as §1
On the technique in general: In Kinase-Glo more light means more ATP remaining.

[7] abbreviates: mouse, plasma, po (Table VIII, dose not given).

T1 sequence (O15530 whole entry): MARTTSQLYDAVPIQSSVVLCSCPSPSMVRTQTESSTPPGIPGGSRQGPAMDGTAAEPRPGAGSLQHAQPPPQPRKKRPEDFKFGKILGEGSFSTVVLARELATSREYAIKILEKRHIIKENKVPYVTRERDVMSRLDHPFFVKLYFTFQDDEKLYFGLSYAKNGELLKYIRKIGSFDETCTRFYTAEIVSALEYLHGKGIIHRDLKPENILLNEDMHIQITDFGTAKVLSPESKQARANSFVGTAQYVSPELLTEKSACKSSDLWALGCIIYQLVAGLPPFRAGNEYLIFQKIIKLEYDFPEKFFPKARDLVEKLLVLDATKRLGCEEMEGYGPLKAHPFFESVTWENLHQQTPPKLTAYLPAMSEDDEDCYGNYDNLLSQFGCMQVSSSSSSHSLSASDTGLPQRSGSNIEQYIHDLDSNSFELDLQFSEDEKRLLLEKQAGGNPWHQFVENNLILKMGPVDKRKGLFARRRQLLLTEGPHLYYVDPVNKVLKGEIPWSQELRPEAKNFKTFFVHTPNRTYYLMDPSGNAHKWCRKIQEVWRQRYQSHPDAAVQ

With `O=C(Nc1ccc2[nH]nc(-c3nc4ccc(N5CCOCC5)cc4[nH]3)c2c1)C1CC1(F)F` (centres unmarked) [Compound 1, 2,2-difluoro-N-(3-(5-morpholino-1H-benzo[d]imidazol-2-yl)-1H-indazol-5-yl)cyclopropanecarboxamide], in data set [1], the IC50 turned out to be 0.08 µM and the pIC50 is 7.10. For the same molecule, in data set [2] (mouse, plasma, iv, 5.0 mg/kg), the area under the curve AUC(0-t) was found to be 516 ng·h/mL, the peak level (Cmax) was 1840 ng/mL, the Tmax was 4.8 min and the clearance came out at 161 mL/min/kg. In data set [2] (mouse, plasma, iv, 5.0 mg/kg), the half-life was 24 min and the Vd was determined as 1.6 L/kg. Further, in data set [2] (setting [7]), the concentration peaked (Cmax) at 9 ng/mL and the Tmax is 15 min. In addition, the concentration at 0.08 hr in data set [2] (mouse, plasma, po, at 0.08 hr, read-out: Level detected after oral administration) was found to be 9 ng/mL. For the same molecule, the “Level after oral administration (in words)” value in data set [2] (po, after 0.08 hr) was “below the limit of detection”. Moreover, the “Effect on body weight” value in data set [3] was “did not appear to cause any body weight loss”. Also, the “Effect on tumor burden (tumor volume) compared to the vehicle control” value in data set [4] is recorded as “modest effect on tumor burden”. In data set [5], the pIC50 is 7.12. Besides, the IC50 in data set [6] was determined as 0.143 µM.

Turning to `CC1CN(c2ccc3nc(-c4n[nH]c5ccc(NC(=O)C6CC6(F)F)cc45)[nH]c3c2)CCO1` (centres unmarked) [Compound 2, 2,2-difluoro-N-(3-(5-(2-methylmorpholino)-1H-benzo[d]imidazol-2-yl)-1H-indazol-5-yl)cyclopropanecarboxamide], in data set [1], the IC50 was 0.094 µM and the pIC50 was 7.03. In data set [2] (mouse, plasma, iv, 5.0 mg/kg), the exposure AUC(0-t) came to 1280 ng·h/mL, the peak level (Cmax) was 4530 ng/mL, the Tmax amounted to 4.8 min and the clearance came to 65 mL/min/kg. For the same molecule, in data set [2] (mouse, plasma, iv, 5.0 mg/kg), the half-life is 24 min and the Vd was found to be 0.63 L/kg. Further, in data set [2] (mouse, plasma, po, 30 mg/kg), the AUC(0-t) turned out to be 244 ng·h/mL, the Cmax was 53 ng/mL, the Tmax amounted to 15 min and the bioavailability stood at 19%. The “Effect on body weight” value in data set [3] is listed as “did not appear to cause any body weight loss”. The “Effect on tumor burden (tumor volume) compared to the vehicle control” value in data set [4] was “profound and significant effect on tumor burden”. In addition, the pIC50 in data set [5] was 7.12. Besides, the IC50 in data set [6] was 0.159 µM.

For the origin of these results see US8569511B2, “Substituted 3-(1H-benzo[d]imidazol-2-yl)-1H-indazole analogs as inhibitors of the PDK1 kinase” (University of Utah Research Foundation, priority 2011, dated 2013).
